# According to patent US12655116B2, “Substituted isophthalic acid diamides” (Bayer Aktiengesellschaft, priority 2020, dated 2026):
# Tests used:
# [1] = tested on: ALOMY; assay: Post-emergence herbicidal action against ALOMY; format: in vivo, Alopecurus myosuroides; conditions: dosage 20 g/ha, visual assessment about 3 weeks after treatment vs untreated controls
# In short: (§1)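 Foliar application at one-leaf stage of formulated test compounds, aqueous spray at 600–800 l/ha with 0.2% wetting agent. Greenhouse, optimal conditions, ~3 weeks; damage scored visually in % relative to untreated plants.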
# [2] = tested on: PHBPU; assay: Post-emergence herbicidal action against PHBPU; format: in vivo, Pharbitis purpurea; conditions: dosage 20 g/ha
# In short: as §1
# [3] = tested on: VIOTR; assay: Post-emergence herbicidal action against VIOTR; format: in vivo, Viola tricolor
# In short: as §1
# [4] = tested on: ECHCG; assay: Post-emergence herbicidal action against ECHCG; format: in vivo, Echinochloa crus-galli; conditions: dosage 20 g/ha
# In short: as §1
# [5] = tested on: AVEFA; assay: Pre-emergence herbicidal action against AVEFA; format: in vivo, Avena fatua; conditions: pre-emergence
# In short: (§2)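 Greenhouse pots of sandy loam held seeds covered with soil, onto which the compound was applied before emergence. An aqueous suspension or emulsion of WP or EC was used at 600 to 800 l/ha with 0.2% wetting agent. Percent damage was judged visually at 3 weeks.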
# [6] = tested on: POLCO; assay: Post-emergence herbicidal action against POLCO; format: in vivo, Polygonum convolvulus; conditions: dosage 20 g/ha
# In short: as §1
# [7] = tested on: ECHCG; assay: Pre-emergence herbicidal action against ECHCG; format: in vivo, Echinochloa crus-galli
# In short: as §2
# [8] = tested on: PHBPU; assay: Pre-emergence herbicidal action against PHBPU; format: in vivo, Pharbitis purpurea; conditions: dosage 80 g/ha
# In short: as §2
# [9] = tested on: MATIN; assay: Pre-emergence herbicidal action against MATIN; format: in vivo, Matricaria inodora
# In short: as §2
# [10] = tested on: VERPE; assay: Post-emergence herbicidal action against VERPE; format: in vivo, Veronica persica
# In short: as §1
# [11] = tested on: MATIN; assay: Post-emergence herbicidal action against MATIN; format: in vivo, Matricaria inodora
# In short: as §1
# [12] = tested on: ALOMY; assay: Pre-emergence herbicidal action against ALOMY; format: in vivo, Alopecurus myosuroides; conditions: 80 g/ha, pre-emergence, scored visually after 3 weeks vs untreated controls (100% = plants have died, 0% = like control plants)
# In short: as §2
# [13] = tested on: VERPE; assay: Pre-emergence herbicidal action against VERPE; format: in vivo, Veronica persica
# In short: as §2
# [14] = tested on: SETVI; assay: Pre-emergence herbicidal action against SETVI; format: in vivo, Setaria viridis
# In short: as §2
# [15] = tested on: DIGSA; assay: Pre-emergence herbicidal action against DIGSA; format: in vivo, Digitaria sanguinalis
# In short: as §2
# [16] = tested on: VIOTR; assay: Pre-emergence herbicidal action against VIOTR; format: in vivo, Viola tricolor
# In short: as §2
# [17] = tested on: POLCO; assay: Pre-emergence herbicidal action against POLCO; format: in vivo, Polygonum convolvulus; conditions: dosage 80 g/ha
# In short: as §2
# [18] = tested on: ABUTH; assay: Pre-emergence herbicidal action against ABUTH; format: in vivo, Abutilon theophrasti
# In short: as §2
# [19] = tested on: AMARE; assay: Pre-emergence herbicidal action against AMARE; format: in vivo, Amaranthus retroflexus
# In short: as §2
# [20] = tested on: DIGSA; assay: Post-emergence herbicidal action against DIGSA; format: in vivo, Digitaria sanguinalis; conditions: Digitaria sanguinalis, 504 h
# In short: as §1
# [21] = tested on: ABUTH; assay: Post-emergence herbicidal action against ABUTH; format: in vivo, Abutilon theophrasti; conditions: Abutilon theophrasti, 504 h, visual assessment about 3 weeks after treatment vs untreated controls
# In short: as §1
# [22] = tested on: SETVI; assay: Post-emergence herbicidal action against SETVI; format: in vivo, Setaria viridis; conditions: Setaria viridis, 504 h
# In short: as §1
# [23] = tested on: AMARE; assay: Post-emergence herbicidal action against AMARE; format: in vivo, Amaranthus retroflexus; conditions: Amaranthus retroflexus, 504 h, 20 g/ha, visual assessment about 3 weeks after treatment, 100% = plants have died, 0% = like control plants
# In short: as §1
# [24] = 80 g/ha, scored visually after 3 weeks vs untreated controls (100% = plants have died, 0% = like control plants)
# [25] = Tripleurospermum inodorum, 504 h, dosage 20 g/ha
smiles,measurement,setting,value
CC(NC(=O)c1c(Br)ccc(C(=O)Nc2nnnn2C)c1Cl)C1CC1 (stereo not drawn) [Example 1-183],Post-emergence action against ALOMY in %,[1],90%
same,Post-emergence action against PHBPU in %,[2],80%
same,Post-emergence action against VIOTR in %,[3]; 5 g/ha,90%
same,Post-emergence action against VIOTR in %,[3]; 20 g/ha,90%
same,Post-emergence action against ECHCG in %,[4],100%
same,Pre-emergence action against AVEFA in %,[5]; 80 g/ha,90%
same,Post-emergence action against POLCO in %,[6],100%
same,Pre-emergence action against ECHCG in %,[7]; 20 g/ha,90%
same,Pre-emergence action against ECHCG in %,[7]; 80 g/ha,100%
same,Pre-emergence action against PHBPU in %,[8],90%
same,Pre-emergence action against MATIN in %,[9]; dosage 20 g/ha,90%
same,Pre-emergence action against MATIN in %,[9]; dosage 80 g/ha,100%
same,Post-emergence action against VERPE in %,[10]; 5 g/ha,80%
same,Post-emergence action against VERPE in %,[10]; 20 g/ha,90%
same,Post-emergence action against MATIN in %,[11]; dosage 5 g/ha,90%
same,Post-emergence action against MATIN in %,[11]; dosage 20 g/ha,90%
same,Pre-emergence action against ALOMY (herbicidal activity),[12],90%
same,Pre-emergence action against VERPE in %,[13]; dosage 20 g/ha,90%
same,Pre-emergence action against VERPE in %,[13]; dosage 80 g/ha,100%
same,Pre-emergence action against SETVI in %,[14]; dosage 80 g/ha,100%
same,Pre-emergence action against DIGSA in %,[15]; dosage 20 g/ha,100%
same,Pre-emergence action against DIGSA in %,[15]; dosage 80 g/ha,100%
same,Pre-emergence action against VIOTR in %,[16]; dosage 20 g/ha,100%
same,Pre-emergence action against VIOTR in %,[16]; dosage 80 g/ha,100%
same,Pre-emergence action against POLCO in %,[17],80%
same,Pre-emergence action against ABUTH (herbicidal activity),[18]; [24],100%
same,Pre-emergence action against ABUTH (herbicidal activity in percent),"[18]; dosage 20 g/ha, scored visually after 3 weeks vs untreated controls, 100% = plants have died, 0% = like control plants",100%
same,Pre-emergence action against AMARE in %,"[19]; 20 g/ha, scored visually after 3 weeks vs untreated controls, 100% = plants have died, 0% = like control plants",100%
same,Pre-emergence action against AMARE in %,[19]; [24],100%
CNC(=O)c1c(C(F)(F)F)ccc(C(=O)Nc2nnnn2C)c1Br [Example 1-207],pest or weed control at 20 g/ha,"[1]; Alopecurus myosuroides, 504 h",90%
same,pest or weed control at 20 g/ha,"[2]; Ipomoea purpurea, 504 h",80%
same,pest or weed control at 5 g/ha,"[3]; Viola tricolor, 504 h, 5 g/ha",100%
same,pest or weed control at 20 g/ha,"[3]; Viola tricolor, 504 h, 20 g/ha",100%
same,pest or weed control at 20 g/ha,"[4]; Echinochloa crus-galli, 504 h",80%
same,pest or weed control at 80 g/ha,"[5]; Avena fatua, 504 h, 80 g/ha",90%
same,pest or weed control at 20 g/ha,"[5]; Avena fatua, 504 h, 20 g/ha, scored visually after 3 weeks, 100% = plants have died, 0% = like control plants",80%
same,pest or weed control at 20 g/ha,"[6]; Fallopia convolvulus, 504 h",100%
same,pest or weed control at 80 g/ha,"[7]; Echinochloa crus-galli, 504 h, 80 g/ha",90%
same,pest or weed control at 5 g/ha,[20]; 5 g/ha,90%
same,pest or weed control at 20 g/ha,[20]; 20 g/ha,100%
same,pest or weed control at 80 g/ha,"[8]; Ipomoea purpurea, 504 h",80%
same,pest or weed control at 5 g/ha,[21]; dosage 5 g/ha,80%
same,pest or weed control at 20 g/ha,[21]; dosage 20 g/ha,90%
same,pest or weed control at 20 g/ha,[9]; [25],90%
same,pest or weed control at 80 g/ha,"[9]; Tripleurospermum inodorum, 504 h, dosage 80 g/ha",100%
same,pest or weed control at 20 g/ha,"[10]; Veronica persica, 504 h, 20 g/ha",90%
same,pest or weed control at 20 g/ha,[11]; [25],90%
same,pest or weed control at 5 g/ha,[22]; dosage 5 g/ha,100%
same,pest or weed control at 20 g/ha,[22]; dosage 20 g/ha,100%
same,pest or weed control at 80 g/ha,"[12]; Alopecurus myosuroides, 504 h",100%
same,pest or weed control at 80 g/ha,"[13]; Veronica persica, 504 h, dosage 80 g/ha",100%
same,pest or weed control at 20 g/ha,"[14]; Setaria viridis, 504 h, dosage 20 g/ha",100%
same,pest or weed control at 80 g/ha,"[14]; Setaria viridis, 504 h, dosage 80 g/ha",100%
same,pest or weed control at 20 g/ha,[23],100%
same,pest or weed control at 20 g/ha,"[15]; Digitaria sanguinalis, 504 h, dosage 20 g/ha",100%
same,pest or weed control at 80 g/ha,"[15]; Digitaria sanguinalis, 504 h, dosage 80 g/ha",100%
same,pest or weed control at 20 g/ha,"[16]; Viola tricolor, 504 h, dosage 20 g/ha",100%
same,pest or weed control at 80 g/ha,"[16]; Viola tricolor, 504 h, dosage 80 g/ha",100%
same,pest or weed control at 80 g/ha,"[17]; Fallopia convolvulus, 504 h",90%
same,pest or weed control at 80 g/ha,"[18]; Abutilon theophrasti, 504 h, 80 g/ha, scored visually after 3 weeks vs untreated controls (100% = plants have died, 0% = like control plants)",100%
same,pest or weed control at 20 g/ha,"[18]; Abutilon theophrasti, 504 h, dosage 20 g/ha, scored visually after 3 weeks vs untreated controls, 100% = plants have died, 0% = like control plants, read-out: Pre-emergence action against ABUTH (herbicidal activity in percent)",100%
same,pest or weed control at 20 g/ha,"[19]; Amaranthus retroflexus, 504 h, 20 g/ha, scored visually after 3 weeks vs untreated controls, 100% = plants have died, 0% = like control plants",100%
same,pest or weed control at 80 g/ha,"[19]; Amaranthus retroflexus, 504 h, 80 g/ha, scored visually after 3 weeks vs untreated controls, 100% = plants have died, 0% = like control plants",100%
